19 compounds from EP4782453A1 (Beyang Therapeutics Co., Ltd., priority 2023, dated 2025) can be followed below.

Where two headings read alike, the source gives them in different places.

For orientation: IC50 means the concentration that gives 50% inhibition.

One experiment has as its target T1, Menin-MLL (Homo sapiens, UniProt O00255).
T1 construct: His-Menin (M1-L615 end); purchased BIORTUS BP9210
T1 sequence (O00255 1-615 isoform O00255-1): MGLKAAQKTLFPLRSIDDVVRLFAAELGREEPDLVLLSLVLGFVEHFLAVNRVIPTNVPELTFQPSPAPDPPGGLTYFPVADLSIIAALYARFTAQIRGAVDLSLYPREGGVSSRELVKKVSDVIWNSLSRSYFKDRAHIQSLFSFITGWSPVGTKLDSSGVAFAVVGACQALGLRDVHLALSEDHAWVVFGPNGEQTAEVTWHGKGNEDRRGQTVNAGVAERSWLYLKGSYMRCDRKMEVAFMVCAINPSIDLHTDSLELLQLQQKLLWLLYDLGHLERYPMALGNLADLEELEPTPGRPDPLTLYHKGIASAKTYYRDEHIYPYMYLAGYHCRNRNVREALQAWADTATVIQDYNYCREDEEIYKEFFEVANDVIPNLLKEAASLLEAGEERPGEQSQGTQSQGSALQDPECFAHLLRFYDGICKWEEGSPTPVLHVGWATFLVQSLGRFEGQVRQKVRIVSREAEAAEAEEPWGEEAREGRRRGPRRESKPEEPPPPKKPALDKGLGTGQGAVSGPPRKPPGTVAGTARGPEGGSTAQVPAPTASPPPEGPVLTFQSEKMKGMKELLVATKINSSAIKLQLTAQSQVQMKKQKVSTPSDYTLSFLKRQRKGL
Put plainly: Inhibitory activity against Menin-MLL binding (fluorescence polarization). The settings on record: 150 nM His-Menin, 15 nM FITC-MLL, 25°C for 60 min. The method in brief:
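His-Menin (M1-L615, 150 nM) preincubated with compound 15 min at 25 °C in HEPES pH 7.5, 50 mM NaCl, 1 mM DTT, 0.01% BSA, then 15 nM FITC-MLL4-43 peptide added for 60 min at 25 °C. Fluorescence polarization read; IC50 from 4-parameter logistic fit, duplicates.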
On the technique in general: Polarisation of emitted light reports the rotation of a fluorescent probe.

In experiment [1] the test system is MV-4-11 (carrying MLL-AF4). Put plainly: Inhibition of proliferation of human tumor cells (Alamar Blue, 7 days), MV-4-11. It counts as cell-based. The settings on record: Homo sapiens, MV4-11, 168 h, MV-4-11 cells (carrying MLL-AF4), method calls the value GI50. The method in brief:
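Seven-day continuous compound exposure in duplicate wells, with 0.1% DMSO vehicle. Proliferation is quantified by Alamar Blue fluorescence and expressed as GI50, using Day 0 readings as the low reference.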

Where [2] appears, read: fluorescence polarization, read-out: Menin-MLL IC50.
Where [3] appears, read: Menin-MLL IC50, fluorescence polarization.

Turning to `CCN1CCN(CCC[C@H](C(C)C)N2CC(c3cc(-c4ccc(F)cc4C(=O)N4CCOC[C@H]4C)c4cnc(C)n4c3)C2)CC1` [Example 324-2], the half-maximal inhibitory concentration (IC50) on Menin-MLL (setting [2]) was 2.5 nM; in experiment [1], 1.3 nM.

With `CCN(C(=O)c1cc(F)ccc1-c1cc(C2CN([C@H](CCCN3CCN(C)CC3)C(C)C)C2)cn2c(C)ncc12)C(C)C` [Example 310-2, N-ethyl-5-fluoro-2-(3-methyl-6-{1-[(3R)-2-methyl-6-(4-methylpiperazin-1-yl)hexan-3-yl]azacyclobutan-3-yl}imidazo[1,5-a]pyridin-8-yl)-N-(isopropyl)benzamide], the IC50 on Menin-MLL (setting [2]) amounted to 3.6 nM; in experiment [1], 0.97 nM.

Take `COCCN(C)CCC[C@H](C(C)C)N1CC(c2cc(-c3ccc(F)cc3C(=O)N3CCOC[C@H]3C)c3c(F)nc(C)n3c2)C1` [Example 200-1]: the IC50 on Menin-MLL (setting [2]) stood at 4.3 nM; in experiment [1] it was 3.2 nM.

Consider `CCN(C(=O)c1cc(F)ccc1-c1cc(C2CCN(Cc3ccc(-c4cc(OC)c(OC)nn4)cc3)C2)cn2c(C)ncc12)C(C)C` (centres unmarked) [Example 83], for which the results for the 50% inhibitory concentration (IC50) (at Menin-MLL (setting [2]); in experiment [1]) were 6 nM and 5.5 nM, respectively.

On to `COCCN(C)CCC[C@H](C(C)C)N1CC(c2cc(-c3ccc(F)cc3C(=O)N3[C@H](C)COC[C@H]3C)c3cnn(C)c3c2)C1` [Example 186-2, [(4R)-4-[3-(4-{2-[(3R,5R)-3,5-dimethylmorpholin-4-carbonyl]-4-fluorophenyl}-1-methyl-1H-indazol-6-yl)azacyclobutan-1-yl]-5-methylhexyl](2-methoxyethyl)methylamine], for which the IC50 at Menin-MLL (setting [2]) worked out at 5.2 nM; in experiment [1], 4.3 nM.

Turning to `CCN(C(=O)c1cc(F)ccc1-c1cc(C2CN([C@H](CCCN3CCN(C(C)=O)CC3)C(C)C)C2)cn2c(C)ncc12)C(C)C` [Example 311-2, 2-(6-{1-[(3R)-6-(4-acetylpiperazin-1-yl)-2-methylhexan-3-yl]azacyclobutan-3-yl}-3-methylimidazo[1,5-a]pyridin-8-yl)-N-ethyl-5-fluoro-N-(isopropyl)benzamide], the concentration for half-maximal inhibition (IC50) on Menin-MLL (setting [2]) came out at 8.5 nM; in experiment [1], 4.7 nM.

In the case of `CCN(C(=O)c1cc(F)ccc1-c1cc(C2CN(C[C@H]3CC[C@H](NS(=O)(=O)CC)CC3)C2)cn2c(C)nc(F)c12)C(C)C` [Example 137], the figures for the 50% inhibitory concentration (IC50) (on Menin-MLL (setting [2]); in experiment [1]) were 6.5 nM and 4.7 nM, respectively.

For `CO[C@H]1CCCN(CCC[C@H](C(C)C)N2CC(c3cc(-c4ccc(F)cc4C(=O)N4CCOC[C@H]4C)c4c(F)nc(C)n4c3)C2)C1` [Example 306], the IC50 was 6.5 nM at Menin-MLL (setting [2]) and 2.8 nM in experiment [1].

For `COC1CCN(CCCC(C(C)C)N2CC(c3cc(-c4ccc(F)cc4C(=O)N4CCOCC4C)c4c(F)nc(C)n4c3)C2)C1` (centres unmarked) [Example 201-1], the IC50 was 2.6 nM on Menin-MLL (setting [2]) and 2.4 nM in experiment [1].

Consider `CCS(=O)(=O)N[C@H]1CC[C@H](CN2CC(c3cc(-c4ccc(F)cc4C(=O)N(CC(F)F)C(C)C)c4cnc(C)n4c3)C2)CC1` [Example 138], for which the half-inhibitory concentration (IC50) on Menin-MLL (setting [2]) came to 6 nM; in experiment [1], 3 nM.

Turning to `CCN(C(=O)c1cc(F)ccc1-c1cc(C2(F)CN(C(=O)C3NC4CCC3CC4)C2)cn2c(C)ncc12)C(C)C` [Example 75, N-ethyl-5-fluoro-2-(6-{3-fluoro-1-[(1R,3S,4S)-2-azabicyclo[2.2.2]octan-3-carbonyl]azacyclobutan-3-yl}-3-methylimidazo[1,5-a]pyridin-8-yl)-N-(isopropyl) benzamide], the concentration for half-maximal inhibition (IC50) worked out at 17.5 nM at Menin-MLL (setting [3]) and 25 nM in experiment [1].

Take `CCN1CCN(CCC[C@H](C(C)C)N2CC(c3cc(-c4ccc(F)cc4C(=O)N4CCOC[C@H]4C)c4c(F)nc(C)n4c3)C2)CC1` [Example 277]: the IC50 is 3.3 nM on Menin-MLL (setting [2]) and 1.6 nM in experiment [1].

For `CCN(C(=O)c1cc(F)ccc1-c1cc(C2CN([C@H](CCCN3CCN(C)CC3)C(C)C)C2)cn2c(C)nc(F)c12)C(C)C` [Example 312-2], the 50% inhibitory concentration (IC50) at Menin-MLL (setting [2]) was 2.8 nM; in experiment [1], 0.91 nM.

As for `CCN(C(=O)c1cc(F)ccc1-c1cc(C2CN([C@H](CN3CCN(CCO)CC3)C(C)C)C2)cn2c(C)ncc12)C(C)C` [Example 431, N-ethyl-5-fluoro-2-(6-{1-[(2S)-1-[4-(2-hydroxylethyl)piperazin-1-yl]-3-methylbutan-2-yl]azacyclobutan-3-yl}-3methylimidazo[1,5-a]pyridin-8-yl)-N-(isopropyl)benzamide], the values for the IC50 (on Menin-MLL (setting [2]); in experiment [1]) were 3.9 nM and 4.7 nM, respectively.

Turning to `Cc1nc(F)c2c(-c3ccc(F)cc3C(=O)N3CCOC[C@H]3C)cc(C3CN([C@H](CCCN4C[C@H]5C[C@@H]4CO5)C(C)C)C3)cn12` [Example 353, (1R,4R)-5-[(4R)-4-[3-(1-fluoro-8-{4-fluoro-2-[(3R)-3-methylmorpholin-4-carbonyl]phenyl}-3-methylimidazo[1,5-a]pyridin-6-yl)azacyclobutan-1-yl]-5-methylhexyl]-2-oxa-5-azabicyclo[2.2.1]heptane], the IC50 on Menin-MLL (setting [2]) came out at 2.6 nM; in experiment [1] it was 4.1 nM.

For the compound `CCS(=O)(=O)N[C@H]1CC[C@H](CN2CC(c3cc(-c4ccc(F)cc4C(=O)N4CCOC[C@H]4C)c4cnc(C)n4c3)C2)CC1` [Example 134, N-[(1r,4r)-4-{[3-(8-{4-fluoro-2-[(3R)-3-methylmorpholin-4-carbonyl]phenyl}-3-methylimidazo[1,5-a]pyridin-6-yl)azacyclobutan-1-yl]methyl}cyclohexyl]ethan-1-sulfonamide], the IC50 at Menin-MLL (setting [3]) was determined as 17.5 nM; in experiment [1], 26 nM.

As to `Cc1nc(F)c2c(-c3ccc(F)cc3C(=O)N3CCOC[C@H]3C)cc(C3CN([C@H](CCCN4CCN(C)CC4)C(C)C)C3)cn12` [Example 275, (3R)-4-[5-fluoro-2-(1-fluoro-3-methyl-6-{1-[(3R)-2-methyl-6-(4-methylpiperazin-1-yl)hexan-3-yl]azacyclobutan-3-yl}imidazo[1,5-a]pyridin-8-yl)benzoyl]-3-methylmorpholine], the IC50 came out at 3.2 nM at Menin-MLL (setting [2]) and 2.6 nM in experiment [1].

`CC(=O)N1CCN(CCC[C@H](C(C)C)N2CC(c3cc(-c4ccc(F)cc4C(=O)N4CCOC[C@H]4C)c4c(F)nc(C)n4c3)C2)CC1` [Example 265]: the IC50 is 12.8 nM at Menin-MLL (setting [2]) and 8.6 nM in experiment [1].

With `CO[C@@H]1CCN(CCC[C@H](C(C)C)N2CC(c3cc(-c4ccc(F)cc4C(=O)N4CCOC[C@H]4C)c4c(F)nc(C)n4c3)C2)C1` [Example 202], the IC50 on Menin-MLL (setting [2]) stood at 4.3 nM; in experiment [1] it was 1.8 nM.
